How the values were obtained:
Cbl-b = Cbl-b (Homo sapiens (Human), UniProt Q13191); experiment: Cbl-b LCK Ub TR-FRET assay (Cbl-b Lck HTRF); type: biochemical
Procedure, shortened: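 Biotin-Cbl-b preincubated with compound (10-point 3-fold series) 60 min, then His-LCK with 1 mM ATP (2× mixture) added for 90 min at room temperature. Ubiquitination detected by TR-FRET using HA-ubiquitin/UBE2D2 adduct, anti-HA-D2 and streptavidin-Eu; IC50 normalised to no-LCK and DMSO controls.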

c-Cbl = c-Cbl (Homo sapiens (Human), UniProt P22681); experiment: C-Cbl LCK Ub TR-FRET assay (c-cbl Lck HTRF); type: biochemical; conditions: for (fold-selectivity): C-cbl Lck HTRF IC50 relative to Cbl-b Lck HTRF IC50
c-Cbl, sequence (P22681 47-435): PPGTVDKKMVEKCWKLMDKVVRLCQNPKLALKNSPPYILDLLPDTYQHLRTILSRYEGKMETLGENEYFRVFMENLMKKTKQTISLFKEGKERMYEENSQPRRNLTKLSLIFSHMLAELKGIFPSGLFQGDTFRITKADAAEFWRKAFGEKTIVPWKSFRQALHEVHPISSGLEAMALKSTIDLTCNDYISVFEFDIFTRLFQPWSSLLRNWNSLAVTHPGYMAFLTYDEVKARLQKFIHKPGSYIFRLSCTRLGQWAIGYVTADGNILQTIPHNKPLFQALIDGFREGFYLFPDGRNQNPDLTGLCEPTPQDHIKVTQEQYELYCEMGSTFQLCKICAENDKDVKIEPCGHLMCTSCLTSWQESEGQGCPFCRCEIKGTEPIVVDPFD
Procedure, shortened: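 Signal is read once the detection mix has stood 20 min at ambient temperature. Curves are anchored by DMSO as maximum and by omission of LCK as minimum.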

Cbl-b, sequence (Q13191 40-426): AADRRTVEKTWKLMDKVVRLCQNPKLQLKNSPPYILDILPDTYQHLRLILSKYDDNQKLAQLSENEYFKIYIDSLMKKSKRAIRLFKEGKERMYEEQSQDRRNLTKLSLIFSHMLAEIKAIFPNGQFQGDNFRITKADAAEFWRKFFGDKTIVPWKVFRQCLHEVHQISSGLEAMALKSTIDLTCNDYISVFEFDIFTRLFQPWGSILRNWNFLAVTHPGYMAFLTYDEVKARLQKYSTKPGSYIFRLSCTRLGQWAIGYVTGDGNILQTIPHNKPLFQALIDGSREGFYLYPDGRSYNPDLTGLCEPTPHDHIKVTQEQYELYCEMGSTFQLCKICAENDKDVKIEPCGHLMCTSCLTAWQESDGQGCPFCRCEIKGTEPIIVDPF

Row | SMILES | IC50 (Cbl-b) [nM] | IC50 (c-Cbl) [nM] | (fold-selectivity) (c-Cbl) [x]
1 | C[C@@H](c1cc2c(c(C(F)(F)F)c1)CN(c1cccc(C3([C@@H](F)c4nncn4C)COC3)c1)C2=O)N1CC(C)(F)C1 [Compound 108, 2-(3-(3((R)-fluoro(4-methyl-4H-1,2,4-triazol-3-yl)methyl)oxetan-3-yl)phenyl)-6-((S)-1-(3-fluoro-3-methylazetidin-1-yl)ethyl)-4-(trifluoromethyl)isoindolin-1-one] | 83 | 160 | 2.0
2 | Cn1cnnc1[C@@H](F)C1(c2cccc(N3Cc4c(cc(Oc5cn[nH]c5)cc4C(F)(F)F)C3=O)c2)COC1 [Compound 117, (S)-6-((1H-pyrazol-4-yl)oxy)-2-(3-(3-(fluoro(4-methyl-4H-1,2,4-triazol-3-yl)methyl)oxetan-3-yl)phenyl)-4-(trifluoromethyl)isoindolin-1-one] | 540 | 750 | 1.4
3 | C[C@H]1CN(Cc2cc3c(c(C(F)(F)F)c2)CN(c2cccc(C4([C@@H](F)c5nncn5C)COC4)c2)C3=O)CCCO1 [Compound 118, 2-(3-(3-((R)-fluoro(4-methyl-4H-1,2,4-triazol-3-yl)methyl)oxetan-3-yl)phenyl)-6-(((S)-2-methyl-1,4-oxazepan-4-yl)methyl)-4-(trifluoromethyl)isoindolin-1-one] | 7 | 8 | 1.1
4 | CC1CN(Cc2cc3c(c(C(F)(F)F)c2)CN(c2cccc(C4([C@H](F)c5nncn5C)COC4)c2)C3=O)CCCO1 (stereo partly drawn) [Compound 120, 2-(3-(3-((S)-fluoro(4-methyl-4H-1,2,4-triazol-3-yl)methyl)oxetan-3-yl)phenyl)-6-((2-methyl-1,4-oxazepan-4-yl)methyl)-4-(trifluoromethyl)isoindolin-1-one] | 36 | 44 | 1.2
5 | Cn1cnnc1[C@@H](F)C1(c2cccc(N3Cc4c(cc(CN5CC(C)(CO)C5)cc4C(F)(F)F)C3=O)c2)CC1 [Compound 125, (S)-2-(3-(1-(fluoro(4-methyl-4H-1,2,4-triazol-3-yl)methyl)cyclopropyl)phenyl)-6((3-(hydroxymethyl)-3-methylazetidin-1-yl)methyl)-4-(trifluoromethyl)isoindolin-1-one] | 140 | 240 | 1.7
6 | Cn1cnnc1[C@H](F)C1(c2cccc(N3Cc4c(cc(CN5CC(C)(CO)C5)cc4C(F)(F)F)C3=O)c2)CC1 [Compound 126, (R)-2-(3-(1-(fluoro(4-methyl-4H-1,2,4-triazol-3-yl)methyl)cyclopropyl)phenyl)-6((3-(hydroxymethyl)-3-methylazetidin-1-yl)methyl)-4-(trifluoromethyl)isoindolin-1-one] | 64 | 93 | 1.5
7 | Cn1cnnc1[C@H](F)C1(c2cccc(N3Cc4c(cc(CN5CCC(F)(CO)CC5)cc4C(F)(F)F)C3=O)c2)COC1 [Compound 133, (R)-2-(3-(3-(fluoro(4-methyl-4H-1,2,4-triazol-3-yl)methyl)oxetan-3-yl)phenyl)-6-((4-fluoro-4-(hydroxymethyl)piperidin-1-yl)methyl)-4-(trifluoromethyl)isoindolin-1-one] | 90 | 170 | 1.9
8 | Cn1cnnc1[C@@H](F)C1(c2cccc(N3Cc4c(cc(CN5CCC(F)(CO)CC5)cc4C(F)(F)F)C3=O)c2)COC1 [Compound 134, (S)-2-(3-(3-(fluoro(4-methyl-4H-1,2,4-triazol-3-yl)methyl)oxetan-3-yl)phenyl)-6-((4-fluoro-4-(hydroxymethyl)piperidin-1-yl)methyl)-4-(trifluoromethyl)isoindolin-1-one] | 210 | 670 | 3.3

Second part, the compound after the results:

Row | IC50 (Cbl-b) [nM] | IC50 (c-Cbl) [nM] | (fold-selectivity) (c-Cbl) [x] | SMILES
9 | 18 | 19 | 1.0 | Cn1cnnc1CC1(c2cccc(N3Cc4c(cc(CN5CC(C)(F)C5)cc4C(F)(F)F)C3=O)c2)CC(F)(F)C1 [Compound 107, 2-(3-(3,3-difluoro-1-((4-methyl-4H-1,2,4-triazol-3-yl)methyl)cyclobutyl)phenyl)-6-((3-fluoro-3-methylazetidin-1-yl)methyl)-4-(trifluoromethyl)isoindolin-1-one]
10 | 44 | 85 | 1.9 | C[C@H](c1cc2c(c(C(F)(F)F)c1)CN(c1cccc(C3([C@@H](F)c4nncn4C)COC3)c1)C2=O)N1CC(C)(F)C1 [Compound 109, 2-(3-(3((R)-fluoro(4-methyl-4H-1,2,4-triazol-3-yl)methyl)oxetan-3-yl)phenyl)-6-((R)-1-(3-fluoro-3-methylazetidin-1-yl)ethyl)-4-(trifluoromethyl)isoindolin-1-one]
11 | 320 | 650 | 2.0 | C[C@@H](c1cc2c(c(C(F)(F)F)c1)CN(c1cccc(C3([C@H](F)c4nncn4C)COC3)c1)C2=O)N1CC(C)(F)C1 [Compound 110, 2-(3-(3-((S)-fluoro(4-methyl-4H-1,2,4-triazol-3-yl)methyl)oxetan-3-yl)phenyl)-6-((S)-1-(3-fluoro-3-methylazetidin-1-yl)ethyl)-4-(trifluoromethyl)isoindolin-1-one]
12 | 190 | 340 | 1.8 | C[C@H](c1cc2c(c(C(F)(F)F)c1)CN(c1cccc(C3([C@H](F)c4nncn4C)COC3)c1)C2=O)N1CC(C)(F)C1 [Compound 111, 2-(3-(3-((S)-fluoro(4-methyl-4H-1,2,4-triazol-3-yl)methyl)oxetan-3-yl)phenyl)-6-((R)-1-(3-fluoro-3-methylazetidin-1-yl)ethyl)-4-(trifluoromethyl)isoindolin-1-one]
13 | 310 | 330 | 1.1 | Cn1cnnc1[C@H](F)C1(c2cccc(N3Cc4c(cc(Oc5cn[nH]c5)cc4C(F)(F)F)C3=O)c2)COC1 [Compound 116, (R)-6-((1H-pyrazol-4-yl)oxy)-2-(3-(3-(fluoro(4-methyl-4H-1,2,4-triazol-3-yl)methyl)oxetan-3-yl)phenyl)-4-(trifluoromethyl)isoindolin-1-one]
14 | 48 | 52 | 1.1 | C[C@@H]1CN(Cc2cc3c(c(C(F)(F)F)c2)CN(c2cccc(C4([C@@H](F)c5nncn5C)COC4)c2)C3=O)CCCO1 [Compound 119, 2-(3-(3((R)-fluoro(4-methyl-4H-1,2,4-triazol-3-yl)methyl)oxetan-3-yl)phenyl)-6-(((R)-2-methyl-1,4-oxazepan-4-yl)methyl)-4-(trifluoromethyl)isoindolin-1-one]
15 | 59 | 170 | 2.9 | CO[C@H]1CCN(Cc2cc3c(c(C(F)(F)F)c2)CN(c2cccc(C4([C@@H](F)c5nncn5C)COC4)c2)C3=O)C1 [Compound 131, 2-(3-(3-((R)-fluoro(4-methyl-4H-1,2,4-triazol-3-yl)methyl)oxetan-3-yl)phenyl)-6-(((S)-3-methoxypyrrolidin-1-yl)methyl)-4-(trifluoromethyl)isoindolin-1-one]
16 | 230 | 470 | 2.1 | CO[C@H]1CCN(Cc2cc3c(c(C(F)(F)F)c2)CN(c2cccc(C4([C@H](F)c5nncn5C)COC4)c2)C3=O)C1 [Compound 132, 2-(3-(3-((S)-fluoro(4-methyl-4H-1,2,4-triazol-3-yl)methyl)oxetan-3-yl)phenyl)-6-(((S)-3-methoxypyrrolidin-1-yl)methyl)-4-(trifluoromethyl)isoindolin-1-one]
